From patent publication US20210395226A1, “SUBSTITUTED ARYL COMPOUND AND PREPARATION METHOD THEREFOR AND USE THEREOF” (SICHUAN KELUN-BIOTECH BIOPHARMACEUTICAL CO., LTD., priority 2018, published 2021) come the findings set out here.

Read-outs that look alike come from different tables or passages of the source.

The Ki is the dissociation constant of the complex between target and ligand, obtained from inhibition or displacement. One may read the bioavailability as dose-corrected exposure relative to a reference, in per cent. High values mean much systemic uptake, low ones little systemic uptake. By Cmax is commonly meant the peak of the concentration-time curve. By inhibition is commonly meant the drop in the measured response relative to a control, in per cent.

Data set [1] addresses T1, Adenosine A2a receptor (human) membrane (Homo sapiens, UniProt P29274).
T1 construct: purchased PerkinElmer RBHA2AM400UA
Nature of the data set: Determination of competitive inhibition constant (Ki) for adenosine A2a receptor, [3H]-CGS-21680 radioligand. The data set is classed as binding. The note with it: for Ki: human A2a receptor membrane, 6.0 nM [3H]-CGS-21680, read-out: Ki(A2a); for Ki(A1)/Ki(A2a): selectivity ratio A1 over A2a. The protocol:
(§1) Test Example 1: Determination of Competitive Inhibition Constant (Ki) for Adenosine A1 and A2a Receptors
Adenosine A2a receptor (human) membrane (PerkinElmer, RBHA2AM400UA),
assay buffer for A2a (50 mM Tris-HCl, 10 mM MgCl2, 1 mM EDTA, pH7.4), used to dilute adenosine A2a receptor (human) membrane (human origin) and [^3H]-CGS-21680; and
wash buffer for A2a (50 mM Tris-HCl, 154 mM NaCl, pH7.4).
(§2) Adenosine A1 receptor membrane was diluted to 0.025 μg/μl with assay buffer for A1, and Adenosine A2a receptor membrane was diluted to 0.05 μg/μl with assay buffer for A2a, so as to obtain Adenosine A1 receptor membrane dilution and Adenosine A2a receptor membrane dilution.
(§3) The compound to be tested and CGS-15943 were diluted with DMSO, and 1 W of the compound to be tested, high value control (0.5% DMSO), low value control (1000 nM CGS-15943) were added to a 96-well plate, and 100 W of Adenosine A1 receptor membrane dilution (containing 2.5 μg of membrane) was added to each well of the 96-well plate to obtain A1 detection plate; following the same steps, 100 W of Adenosine A2a receptor membrane dilution (containing 5.0 μg membrane) was added to each well of the 96-well plate to obtain A2a detection plate.
(§4) To the A1 detection plate, 100 μl of radioisotope-labeled ligand [^3H]-DPCPX (diluted with assay buffer for A1, working concentration of which was 1.0 nM) was added; and to the A2a detection plate, 100 μl of radioisotope-labeled ligand [^3H]-CGS-21680 (diluted with assay buffer for A2a, working concentration of which was 6.0 nM) was added. The A1 and A2a detection plates were sealed with tape, and incubated at room temperature for 1 h and 2 h, respectively.
(§5) Unifilter-96 GF/C filter plates were prepared, 50 μl of 0.3% PEI was added to each well of the Unifilter-96 GF/C filter plates, and the resulting filter plates were incubated at room temperature for not less than 0.5 h.
(§6) After the incubation was completed, the reaction solution was transferred from the A1 detection plate and the A2a detection plate to two Unifilter-96 GF/C filter plates, and washed with pre-cooled wash buffer for A1 and wash buffer for A2a, and then the filter plates were dried, sealed at bottom, then 50 W of Microscint 20 fluid scintillation cocktail was added, and then the filter plates were sealed at top, and counted by MicroBeta2 Reader.
(§7) Inhibition rate %=100−(signal value of test well−signal average value of low value control)/(signal average value of high value control−signal average value of low value control)*100.
(§8) EXCEL XLfit was used to fit IC50.
(§9) The calculation formula for competitive inhibition constant (Ki) was: Ki=IC50/(1+concentration of isotope-labeled ligand/Kd), wherein Kd was the dissociation constant of the isotope-labeled ligand.

A short description of data set [2]: Pharmacokinetics (PK) and distribution in brain tissue in rats. The data set is classed as in vivo, male SD rats. The protocol: Test Example 3: Study on Pharmacokinetics (PK) and Distribution in Brain Tissue in Rats
The compounds of the present application were administered to male SD rats by intravenous (IV) and intragastric (PO) respectively to investigate the pharmacokinetic characteristics. The dosages of IV and PO were 1 mg/kg and 5 mg/kg, respectively. The solvent for IV was a mixture of 5% DMSO, 5% Solutol (polyethylene glycol 15-hydroxystearate) and 90% saline, and the solvent for PO was 0.5% MC (methyl cellulose sodium). Before IV administration (0 h) and at 0.083 h, 0.25 h, 0.5 h, 1 h, 2 h, 4 h, 6 h, 8 h and 24 h time points after administration, blood samples were collected; before PO administration (0 h) and at 0.25 h, 0.5 h, 1 h, 2 h, 4 h, 6 h, 8 h and 24 h time points after administration, blood samples were collected; the blood samples were anticoagulated with EDTA.K2, and centrifuged to obtain plasma samples. For Compound 11, brain tissue samples were taken and homogenized at 0.25 h, 0.5 h, 1 h, 4 h and 8 h; for Compounds 19 and 32, and brain tissue samples were taken and homogenized at 0.25 h, 0.5 h, 1 h and 8 h (three SD rats were selected for the experiment of distribution in brain tissue at each time point), and the resulting brain tissue homogenate samples were stored at −80° C. The plasma samples and brain tissue homogenate samples were subjected to precipitation of protein, and then LC-MS/MS analysis was performed.
Pharmacokinetic parameters were calculated by means of non-compartmental model by using WinNonlin 6.3 software.

Data set [3] addresses T2, Adenosine A1 receptor (human) membrane (Homo sapiens, UniProt P30542).
T2 construct: purchased PerkinElmer ES-010-M400UA
T2 sequence (P30542 1-326): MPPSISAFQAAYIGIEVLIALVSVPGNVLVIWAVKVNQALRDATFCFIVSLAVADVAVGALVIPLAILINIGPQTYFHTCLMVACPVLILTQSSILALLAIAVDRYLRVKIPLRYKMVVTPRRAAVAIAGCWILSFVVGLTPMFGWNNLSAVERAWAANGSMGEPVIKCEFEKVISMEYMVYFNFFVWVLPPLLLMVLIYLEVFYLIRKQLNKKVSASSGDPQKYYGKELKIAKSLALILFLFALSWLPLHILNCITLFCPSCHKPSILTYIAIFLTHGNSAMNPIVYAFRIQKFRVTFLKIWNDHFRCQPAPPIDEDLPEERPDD
Put plainly: Determination of competitive inhibition constant (Ki) for adenosine A1 receptor, [3H]-DPCPX radioligand. The data set is classed as binding. Conditions: 1.0 nM [3H]-DPCPX. The protocol: as §1
[^3H]-DPCPX (PerkinElmer, NET974250UC),
Adenosine A1 receptor (human) membrane (PerkinElmer, ES-010-M400UA),
assay buffer for A1 (25 mM HEPES, 5 mM MgCl2, 1 mM CaCl2, 100 mM NaCl, pH7.4), used to dilute adenosine A1 receptor (human) membrane and [^3H]-DPCPX;
wash buffer for A1 (25 mM HEPES, 5 mM MgCl2, 1 mM CaCl2, 100 mM NaCl, pH7.4);
as §2, §3, §4, §5, §6, §7, §8, §9

The target in another data set is T3, ADORA2a/CHOK1 cells (Homo sapiens, UniProt P29274).
T3 construct: host or cells: CHO-K1
Nature of the data set: Inhibitory activity for ADORA2a/CHOK1 cells (cAMP detection, adenosine as agonist). The data set is classed as cell-based. The note with it: for inhibition at 0.1 µM: CHO-K1, 100 nM compound, read-out: Inhibition rate at 100 nM; for inhibition at 1 µM: CHO-K1, 1000 nM compound, read-out: Inhibition rate at 1000 nM. The protocol: Test Example 2: Study on Inhibitory Activity for ADORA2a/CHOK1 Cells
ADORA2a/CHOK1 cells (Cobai, CBP71017).
FBS was added to Ham's F-12 medium to a concentration of 10% (v/v), Zeocin was added to a final concentration of 200 μg/mL, and Hygromycin B was added to a final concentration of 100 μg/mL, and the resulting mixture was stored at 4° C. for later use.
A certain amount of adenosine was precisely weighed and placed into a 1.5 mL EP tube, then a certain volume of cell culture medium was added, the resulting mixture was incubated at 37° C. for dissolution, thereby a 10 mM stock solution was prepared. The stock solution was diluted with cell culture medium at 1:1000 to get 10 μM adenosine solution.
The compound to be tested was dissolved in DMSO to form a 10 mM stock solution, and the stock solution was stored in a refrigerator at 4° C. for later use. The stock solution was diluted with the 10 μM of adenosine solution to 2000 nM or 200 nM for later test.
(1) CHO-K1 cells stably expressing ADORA2A receptor were cultured in a 37° C., 5% CO2 cell incubator. When the cell confluence reached about 80%, the cells were digested by trypsin, dispersed and counted; (2) the cell concentration was adjusted to 6×10^5 cells/mL according to the counting results; (3) the cells was inoculated into a white 384-well cell culture plate at 5 μL per well (about 3000 cells/well).
All groups were provided with multiple wells, the adenosine-free cell culture medium was added to the wells of the Blank group (5 μL/well); 10 μM adenosine solution was added to the wells of the Agonist group (5 μL/well); the diluted compound was added to the wells of the test compound group (5 μL/well). After the addition of the compound was completed, the 384-well plate was centrifuged at 2500 rpm for 30 seconds to fully mix the compound and the medium, then placed in a 25° C. incubator and incubated for 30 min.
A certain volume of cAMP-d2 was taken, and diluted by adding Lysis & Detection Buffer at the ratio of 1:5 to prepare Solution A.
A certain volume of cAMP-Cryptate was taken, and diluted by adding Lysis & Detection Buffer at the ratio of 1:5 to prepare Solution B.
(2) After 30 min of incubation in step 2 was completed, addition of detection solution was carried out. The 384-well plate was taken out, 5 μL of Solution A was added to each well, and then 5 μL of Solution B was added to each well, then the 384-well plate was covered with sealing membrane, centrifuged at 2500 rpm for 30 s (to fully mix the detection solution and medium), and incubated in a thermostat at 25° C. for 1 h.
After the incubation, the 384-well plate was taken out, and detected by PHERA Star FS to read data, detection wavelength: 620 nm/665 nm.
inhibition rate %=(1−(RCompound−RBlank)/(RAgonist−RBlank))*100%
wherein, RCompound represented the R Value of the test compound group, RAgonist represented the R value of the Agonist group, and RBlank represented the R value of the Blank group.

T1 sequence (P29274 whole entry): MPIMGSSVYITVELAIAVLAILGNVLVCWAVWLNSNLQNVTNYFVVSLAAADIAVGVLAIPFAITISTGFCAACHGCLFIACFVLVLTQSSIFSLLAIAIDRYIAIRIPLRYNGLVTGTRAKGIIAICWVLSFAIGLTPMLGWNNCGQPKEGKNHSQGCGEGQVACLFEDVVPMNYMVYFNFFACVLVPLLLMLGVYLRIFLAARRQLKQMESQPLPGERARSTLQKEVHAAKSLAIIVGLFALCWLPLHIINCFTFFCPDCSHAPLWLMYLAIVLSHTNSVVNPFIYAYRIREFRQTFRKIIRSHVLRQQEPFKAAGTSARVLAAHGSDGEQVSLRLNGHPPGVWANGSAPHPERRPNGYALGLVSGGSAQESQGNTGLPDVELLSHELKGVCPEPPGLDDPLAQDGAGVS
T3 sequence (P29274 whole entry): as above

On to `Cc1ncnc2ccc(-c3cc(F)c(NC(=O)N4CCOCC4)nc3-c3ccc(F)cc3)cc12` [Compound 32, N-(3-fluoro-6-(4-fluorophenyl)-5-(4-methylquinazolin-6-yl)pyridin-2-yl) morpholine-4-carboxamide], for which the Ki is 9.5 nM in data set [1] and 534 nM in data set [3]. Further, the “Ki(A1)/Ki(A2a)” value in data set [1] worked out at 56.2. Moreover, the bioavailability in data set [2] (male, SD, plasma, rat, oral 5 mg/kg compared with intravenous 1 mg/kg) was determined as 80.2%. Further, in data set [2] (male, SD, rat plasma, IV, 1 mg/kg), the Cmax was 1480 ng/mL. Moreover, the AUC(0-t) in data set [2] (male, SD, rat plasma, IV, 1 mg/kg, read-out: AUClast) came out at 1820 ng·h/mL; in data set [2] (male, SD, rat plasma, PO, 5 mg/kg, read-out: AUClast (plasma)), 7310 ng·h/mL. Further, the “AUClast (brain)” value in data set [2] (rat brain tissue, PO, 5 mg/kg) turned out to be 52.9 ng·h/g. The “Plasma AUClast/brain AUClast” value in data set [2] (rat, PO, 5 mg/kg) is 138/1.
In the case of `Cc1ncnc2ccc(-c3c(C#N)cc(NC(=O)N4CCOCC4)nc3-c3ccc(F)cc3)cc12` [Compound 43, N-(4-cyano-6-(4-fluorophenyl)-5-(4-methylquinazolin-6-yl)pyridin-2-yl) morpholine-4-carboxamide], at ADORA2a/CHOK1 cells, the inhibition at 0.1 µM was 59.1% and the inhibition at 1 µM stood at 100%. In data set [1], the Ki worked out at 1.36 nM and the “Ki(A1)/Ki(A2a)” value came out at 98.3. This compound also displayed an inhibition constant Ki in data set [3] of 134 nM.
On the same counts, the results for `Cc1ncnc2ccc(-c3c(-c4ccc(F)cc4)nc(NC(=O)N4CCOCC4)nc3C3CC3)cc12` [Compound 44, N-(4-cyclopropyl-6-(4-fluorophenyl)-5-(4-methylquinazolin-6-yl)pyrimidin-2-yl)morpholine-4-carboxamide] are 64.8%, 104%, 14.5 nM, 64.2 and 931 nM.
